Measurements taken from PMC10302047, “Structure–Activity Relationship Studies of Indolglyoxyl-Polyamine Conjugates as Antimicrobials and Antibiotic Potentiators” (Pharmaceuticals, 2023).
pIC50: −log10 of the molar value. In brackets after ≈: the same amount, converted by molar mass. Read-outs that look alike come from different tables or passages of the source.

Key:
[1] = test system: S. aureus ATCC 25923; test: Antimicrobial susceptibility (MIC), S. aureus; type: cell-based, Staphylococcus aureus; conditions: for MIC: Staphylococcus aureus, ATCC25923, S. aureus ATCC 25923, mean (n = 3)
Protocol: (§1) The susceptibility of bacterial strains S. aureus (ATCC 25923), E. coli (ATCC 25922) and P. aeruginosa (ATCC 27853) to antibiotics and compounds was determined according to previously reported protocols. Additional antimicrobial evaluation against MRSA (ATCC 43300) and C. albicans (ATCC 90028) was undertaken at the Community for Open Antimicrobial Drug Discovery at The University of Queensland (Australia) according to their standard protocols as reported previously.

[2] = test system: MRSA ATCC 43300; test: Antimicrobial susceptibility (MIC), MRSA; type: cell-based; conditions: Staphylococcus aureus, read-out: MIC MRSA
Protocol: as §1

[3] = test system: P. aeruginosa ATCC 27853; test: Antimicrobial susceptibility (MIC), P. aeruginosa; type: cell-based; conditions: Pseudomonas aeruginosa
Protocol: as §1

[4] = test system: E. coli ATCC 25922; test: Antimicrobial susceptibility (MIC), E. coli; type: cell-based; conditions: Escherichia coli, ATCC25922, mean (n = 3)
Protocol: as §1

[5] = test system: C. albicans ATCC 90028; test: Antifungal susceptibility (MIC), C. albicans; type: cell-based; conditions: Candida albicans, ATCC90028, mean (n = 2)
Protocol: as §1

[6] = Cytotoxicity assay HEK293; type: cell-based, human; conditions: human, HEK293 cells, mean (n = 2), read-out: Cyto. IC50 (concentration of compound at 50% cytotoxicity)
Protocol: Cytotoxicity assays were conducted according to previously reported protocols.

[7] = test system: human red blood cells; test: Hemolytic assay; type: cell-based; conditions: mean (n = 2)
Protocol: Hemolysis assays were conducted according to previously reported protocols.

[8] = test system: P. aeruginosa ATCC 27853; test: Antibiotic potentiation (MIC of antibiotics in the presence of synergizing compounds), P. aeruginosa; type: cell-based, Pseudomonas aeruginosa; conditions: concentration required to restore doxycycline activity at 2 µg/mL (4.5 µM) against P. aeruginosa ATCC 27853
[9] = ATCC27853, mean (n = 3), read-out: MIC P. a

Row | Compound | MIC [1] | MIC ([2]; MRSA ATCC 43300, mean (n = 2)) | MIC [3, 9] | MIC [4] | MIC [5] | MIC ([3]; ATCC27853, read-out: observed MIC of doxycycline) | S. aureus and MRSA MIC (range over both strains) ([1]; S. aureus ATCC 25923 and MRSA, summary range in text) | pIC50 [6] | Hem. HC10 (concentration of compound at 10% hemolytic activity) [7] | Conc (µM) for Potentiation of doxycycline [8] | MIC [2]
1 | COc1ccc2[nH]cc(C(=O)C(=O)NCCCNCCCCCCCCCCNCCCNC(=O)C(=O)c3c[nH]c4ccc(OC)cc34)c2c1.O=C(O)C(F)(F)F.O=C(O)C(F)(F)F [Compound 19d, N^1,N^10-Bis(3-(2-(5-methoxy-1H-indol-3-yl)-2-oxoacetamido)propyl)decane-1,10-diaminium 2,2,2-trifluoroacetate] | 12.5 µM | 17.4 µM | > 200 µM | 50 µM | 35 µM |  |  | 5.17 | >35 µM | >200 µM | 
2 | CN[C@H](CC(C)C)C(=O)N[C@H]1C(=O)N[C@@H](CC(N)=O)C(=O)N[C@H]2C(=O)N[C@H]3C(=O)N[C@H](C(=O)N[C@H](C(=O)O)c4cc(O)cc(O)c4-c4cc3ccc4O)[C@H](O)c3ccc(c(Cl)c3)Oc3cc2cc(c3O[C@@H]2O[C@H](CO)[C@@H](O)[C@H](O)[C@H]2O[C@H]2C[C@](C)(N)[C@H](O)[C@H](C)O2)Oc2ccc(cc2Cl)[C@H]1O [vancomycin, reference compound] |  |  |  |  |  |  |  |  |  |  | 0.7 µM (≈ 1.01 µg/mL)
3 | CC/C(=C(\c1ccccc1)c1ccc(OCCN(C)C)cc1)c1ccccc1 [tamoxifen, reference compound] |  |  |  |  |  |  |  | 4.62 |  |  | 
4 | OC(Cn1cncn1)(Cn1cncn1)c1ccc(F)cc1F [fluconazole, reference compound] |  |  |  |  | 0.4 µM (≈ 0.123 µg/mL) |  |  |  |  |  | 
5 | Cc1cccc2c(C(=O)C(=O)NCCCNCCCCCCCCCCNCCCNC(=O)C(=O)c3c[nH]c4c(C)cccc34)c[nH]c12.O=C(O)C(F)(F)F.O=C(O)C(F)(F)F [Compound 23d, N^1,N^10-Bis(3-(2-(7-methyl-1H-indol-3-yl)-2-oxoacetamido)propyl)decane-1,10-diaminium 2,2,2-trifluoroacetate] | 7.1 µM | ≤ 0.28 µM | > 230 µM | 14.1 µM | 18 µM |  |  | < 4.44 |  | 230 µM | 
6 | CC[C@H]1OC(=O)[C@H](C)[C@@H](O[C@H]2C[C@@](C)(OC)[C@@H](O)[C@H](C)O2)[C@H](C)[C@@H](O[C@@H]2O[C@H](C)C[C@H](N(C)C)[C@H]2O)[C@](C)(O)C[C@@H](C)C(=O)[C@H](C)[C@@H](O)[C@]1(C)O [erythromycin, reference compound] |  |  | > 200 µM | > 200 µM |  |  |  |  |  |  | 
7 | O=C(N[C@H](CO)[C@H](O)c1ccc([N+](=O)[O-])cc1)C(Cl)Cl [chloramphenicol, reference compound] | 1.5 to 3 µM (≈ 0.485 to 0.969 µg/mL) |  | > 200 µM | > 200 µM |  |  |  |  |  |  | 
8 | O=C(NCCCNCCCCCCNCCCNC(=O)C(=O)c1c[nH]c2ccccc12)C(=O)c1c[nH]c2ccccc12.O=C(O)C(F)(F)F.O=C(O)C(F)(F)F [Compound 17a, N^1,N^6-Bis(3-(2-(1H-indol-3-yl)-2-oxoacetamido)propyl)hexane-1,6-diaminium 2,2,2-trifluoroacetate] | 12.5 µM | > 40 µM | > 200 µM | 50 µM | > 40 µM |  |  |  |  | 12.5 µM | 
9 | CCn1cc(C(=O)O)c(=O)c2ccc(C)nc21 [nalidixic acid, reference compound] |  |  | > 200 µM | > 200 µM |  |  |  |  |  |  | 
10 | COc1cccc2c(C(=O)C(=O)NCCCNCCCCCCCCCCCCNCCCNC(=O)C(=O)c3c[nH]c4c(OC)cccc34)c[nH]c12 [Compound 22e] | 3.12 µM (≈ 2.24 µg/mL) | ≤ 0.26 µM | 800 µM | 12.5 µM (≈ 8.96 µg/mL) | ≤ 0.26 µM |  | 0.26 to 3.125 µM |  | 0.93 µM | 400 µM | 

Now from value to compound, other results behind:

Row | MIC [1] | MIC ([2]; MRSA ATCC 43300, mean (n = 2)) | MIC [3, 9] | MIC [4] | MIC [5] | MIC ([3]; ATCC27853, read-out: observed MIC of doxycycline) | S. aureus and MRSA MIC (range over both strains) ([1]; S. aureus ATCC 25923 and MRSA, summary range in text) | Compound | pIC50 [6] | Hem. HC10 (concentration of compound at 10% hemolytic activity) [7] | Conc (µM) for Potentiation of doxycycline [8] | MIC [2]
11 |  |  | 50 µM | 25 µM (≈ 11.1 µg/mL) |  | 20 µg/mL |  | C[C@H]1c2cccc(O)c2C(=O)C2=C(O)[C@]3(O)C(=O)C(C(N)=O)=C(O)[C@@H](N(C)C)[C@@H]3[C@@H](O)[C@@H]21 [doxycycline, reference compound] |  |  |  | 
12 |  |  | 70 µM |  |  |  |  | CN(C)c1ccc(O)c2c1C[C@H]1C[C@H]3[C@H](N(C)C)C(O)=C(C(N)=O)C(=O)[C@@]3(O)C(O)=C1C2=O [minocycline, reference compound] |  |  |  | 
13 | 21.5 µM (≈ 12.5 µg/mL) |  | 21.5 µM | 21.5 µM (≈ 12.5 µg/mL) |  |  |  | [H]/N=C(/N)N[C@H]1[C@H](O)[C@@H](O)[C@H](O[C@@H]2O[C@@H](C)[C@](O)(C=O)[C@H]2O[C@@H]2O[C@@H](CO)[C@H](O)[C@@H](O)[C@@H]2NC)[C@@H](N/C(N)=N\[H])[C@@H]1O [streptomycin, reference compound] |  |  |  | 
14 | 6.25 µM | ≤ 0.3 µM | 200 µM | 50 µM | > 38 µM |  |  | Cc1ccc2[nH]cc(C(=O)C(=O)NCCCNCCCCCCCNCCCNC(=O)C(=O)c3c[nH]c4ccc(C)cc34)c2c1.O=C(O)C(F)(F)F.O=C(O)C(F)(F)F [Compound 20b, N^1,N^7-Bis(3-(2-(5-methyl-1H-indol-3-yl)-2-oxoacetamido)propyl)heptane-1,7-diaminium 2,2,2-trifluoroacetate] |  | >38 µM | 12.5 µM | 
15 | 3.12 µM | ≤ 0.28 µM | 800 µM | 12.5 µM | 9 µM |  |  | Cc1ccc2[nH]cc(C(=O)C(=O)NCCCNCCCCCCCCCCNCCCNC(=O)C(=O)c3c[nH]c4ccc(C)cc34)c2c1.O=C(O)C(F)(F)F.O=C(O)C(F)(F)F [Compound 20d, N^1,N^10-Bis(3-(2-(5-methyl-1H-indol-3-yl)-2-oxoacetamido)propyl)decane-1,10-diaminium 2,2,2-trifluoroacetate] | < 4.44 |  | 400 µM | 
16 | 12.5 µM | ≤ 0.3 µM | 200 µM | 50 µM | > 39 µM |  |  | Cc1ccc2[nH]cc(C(=O)C(=O)NCCCNCCCCCCNCCCNC(=O)C(=O)c3c[nH]c4ccc(C)cc34)c2c1.O=C(O)C(F)(F)F.O=C(O)C(F)(F)F [Compound 20a, N^1,N^6-Bis(3-(2-(5-methyl-1H-indol-3-yl)-2-oxoacetamido)propyl)hexane-1,6-diaminium 2,2,2-trifluoroacetate] | < 4.41 |  | 12.5 µM | 
17 | 25 µM (≈ 16.5 µg/mL) | 4.5 µM (≈ 2.97 µg/mL) | 800 µM | 200 µM (≈ 132 µg/mL) | > 36 µM |  |  | COc1cccc2c(C(=O)C(=O)NCCCNCCCCCCCCNCCCNC(=O)C(=O)c3c[nH]c4c(OC)cccc34)c[nH]c12 [Compound 22c] |  | >36 µM | 200 µM | 
18 | 3.12 µM |  | 800 µM | 12.5 µM | 2.2 µM |  |  | Cc1ccc2[nH]cc(C(=O)C(=O)NCCCNCCCCCCCCCCCCNCCCNC(=O)C(=O)c3c[nH]c4ccc(C)cc34)c2c1.O=C(O)C(F)(F)F.O=C(O)C(F)(F)F [Compound 20e, N^1,N^12-Bis(3-(2-(5-methyl-1H-indol-3-yl)-2-oxoacetamido)propyl)dodecane-1,12-diaminium 2,2,2-trifluoroacetate] |  | 2.0 µM | 400 µM | 
19 | 3.12 µM | 4.7 µM | 800 µM | 12.5 µM | > 37 µM |  |  | Cc1ccc2[nH]cc(C(=O)C(=O)NCCCNCCCCCCCCNCCCNC(=O)C(=O)c3c[nH]c4ccc(C)cc34)c2c1.O=C(O)C(F)(F)F.O=C(O)C(F)(F)F [Compound 20c, N^1,N^8-Bis(3-(2-(5-methyl-1H-indol-3-yl)-2-oxoacetamido)propyl)octane-1,8-diaminium 2,2,2-trifluoroacetate] | < 4.43 |  | 400 µM | 
